Measurements taken from patent US10993936B2, “Method of treating one or more symptoms of pulmonary fibrosis by administering inhibitors of nicotinamide phosphoribotransferase” (Arizona Board of Regents on Behalf of the University of …, priority 2017, dated 2021).

How the values were obtained:
[1] = MCT-PH preventive therapy study; assay type: in vivo; settings: preliminary studies
Source text: To generate functional analogs of the NAMPT inhibitor FK-866, the FK-866 structure was divided into three regions and varied by replacing with N-heterocycles to generate FK866 analogs.

IPF fibroblasts = assay: staurosporine-induced apoptosis in IPF lung myofibroblasts; assay type: cell-based, human; settings: IPF fibroblasts pre-treated with FK-866; FIG. 11B
Source text: Human lung tissue and fibroblasts were isolated from the lungs of patients with a confirmed diagnosis of IPF as previously described (18), under an approved protocol by the Institutional Review Board. Fibroblasts were isolated and evaluated for apoptosis, senescence, and ROS levels by immunofluorescence, immunohistochemistry, and/or biochemical assays.
Cells were lysed using caspase lysis buffer and analyzed for activated caspase 3 using the BioVision Caspase 3 Fluorometric Assay Kit according to the manufacturer's instructions (BioVision, Inc, Milpitas Calif.).
Nampt contributes to mouse and human IPF fibroblasts resistance to apoptosis. Staurosporine (300 nM, 8 h)-induced expression of apoptotic markers, cleaved caspase 3 and PARP (FIG. 11A) was increased in lung fibroblasts isolated from Nampt+/− compared with WT mice.

H2O2-induced apoptosis = H2O2-induced apoptosis defined by the TUNEL assay; assay type: cell-based; settings: FIG. 14
Procedure: Slices were first incubated with anti-αSMA overnight at 4° C. After the TUNEL protocol, slides were mounted in DAPI-containing media (Vector Labs) and cells were visualized on a Zeiss fluorescent microscope. TUNEL-positive cells were counted per field in 15-20 fields and normalized to total cells from the DAPI stain.
FIGS. 12A-D show chemical structure of the NAMPT inhibitor, FK-866 (FIG. 12A) which is divided into three regions (FIG. 12B) and varied by replacing with N-heterocycles to generate novel FK866 analogs: MS-1-82 (FIG. 12C), Rari049 (FIG. 12D), Alpii135 (FIG. 12E); FIG. 13 is a bar graph showing normalized NAMPT activity in the present of FK866 and FK analogues MS-1-82, Rari049, Alpii135 at […] concentrations; FIG. 14 is a bar graph showing the role of Nampt enzymatic activity in H2O2-induced apoptosis defined by the TUNEL assay.

Row | Structure (SMILES) | hyper-trophy-ratio of RV and LV plus septal-S weight (RVH-RV) [1] | right ventricular systolic pressure (RVSP) [1] | staurosporine-induced apoptosis (IPF fibroblasts) | H2O2-induced apoptosis (H2O2-induced apoptosis)
1 | O=C(/C=C/c1cccnc1)NCCCCCCn1c(-c2ccccc2)cc2ccccc21 [Rari049] | reducing | reducing |  | 
2 | O=C(/C=C/c1cccnc1)NCCCCC1CCN(C(=O)c2ccccc2)CC1 [FK-866, (E)-N-[4-(1-Benzoylpiperidin-4-yl)butyl]-3-pyridin-3-ylprop-2-enamide] |  |  | restored apoptosis | blocks H2O2-induced apoptosis
